Test results as given in patent US6303591A, “21-hydroxy-6,19-oxidoprogesterone (21OH-6OP) and its use as medicament for treating excess of glucocorticoids” (Applied Research Systems ARS Holding NV, priority 1997, dated 2001).
Entries after “also recorded” stand apart in the source; their conditions may differ.

Target: T1, uterus PR (progesterone receptor) (Rattus norvegicus, UniProt Q63449)
T1 sequence (Q63449 1-923): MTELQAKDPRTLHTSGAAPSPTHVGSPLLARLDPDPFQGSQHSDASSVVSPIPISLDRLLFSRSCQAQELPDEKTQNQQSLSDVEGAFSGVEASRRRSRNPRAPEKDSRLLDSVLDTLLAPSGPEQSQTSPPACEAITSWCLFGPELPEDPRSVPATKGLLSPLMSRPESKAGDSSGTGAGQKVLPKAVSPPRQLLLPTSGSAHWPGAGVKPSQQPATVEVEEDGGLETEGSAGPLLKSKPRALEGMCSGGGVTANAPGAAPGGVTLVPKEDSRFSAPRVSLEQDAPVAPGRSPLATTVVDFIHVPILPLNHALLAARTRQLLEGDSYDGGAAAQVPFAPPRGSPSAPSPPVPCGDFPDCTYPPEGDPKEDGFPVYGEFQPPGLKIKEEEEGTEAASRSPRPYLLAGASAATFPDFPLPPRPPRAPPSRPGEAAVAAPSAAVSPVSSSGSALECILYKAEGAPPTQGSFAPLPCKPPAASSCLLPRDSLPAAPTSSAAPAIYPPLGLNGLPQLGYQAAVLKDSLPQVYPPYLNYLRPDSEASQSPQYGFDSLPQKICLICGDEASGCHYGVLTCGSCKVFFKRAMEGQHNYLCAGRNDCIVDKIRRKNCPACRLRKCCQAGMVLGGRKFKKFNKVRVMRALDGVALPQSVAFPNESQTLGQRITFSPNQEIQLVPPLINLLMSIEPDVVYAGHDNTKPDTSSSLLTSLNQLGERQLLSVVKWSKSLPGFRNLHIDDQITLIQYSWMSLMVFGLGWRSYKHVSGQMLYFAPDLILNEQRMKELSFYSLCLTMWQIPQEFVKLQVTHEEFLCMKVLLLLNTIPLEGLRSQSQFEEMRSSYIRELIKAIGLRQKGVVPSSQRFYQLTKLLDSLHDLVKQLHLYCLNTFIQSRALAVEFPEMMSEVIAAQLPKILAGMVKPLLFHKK
Experiment: (^3 H)-P4 binding to uterus cytosols (PR)
Settings: uterus cytosol, 12 h at 0° C., 1 μM cortisol
Description: Binding Assay: Adrenalectomized male Sprague-Dawley rats were bled to death by heart puncture. Cold 0.9% NaCI was injected profusely through the aorta until organs were completely blanched. Thymuses were used as a source of GR and kidneys as a source of MR. Homogenization and incubation conditions were performed as previously described, (14) and (15), respectively. Briefly, homogenates performed in cold TEGM buffer at pH 7.4 (0.1 M Tris-HCl, 10 mM EDTA, 10 mM α-mercaptoethanol, 20 mM Na2 MoO4, 25% glycerol, 0.1 mM PMSF, 2.0 TIU/ml aprotinin and 1 mg% Leupeptin) were centrifuged at 37,000 rev. for 30 min at 0° C. Supernatants from this centrifugation are referred to as "cytosol". […] (^3 H)-P4 binding to uterus PR was assayed on immature female rats according to Jordan et al (16).
Relative binding affinity (RBA) for partially purified CBG was determined by steroid competition for (^3 H)-B binding as described previously (14).

C[C@]12CC[C@H]3[C@@H](C[C@H]4OC[C@@]35CCC(=O)C=C45)[C@@H]1CC[C@@H]2C(=O)CO [21OH-6OP, 21-hydroxy-6,19-oxidoprogesterone]
displacement of (^3 H)-P4 from uterus receptors / cross-reaction with PR: unable to cross-react with uterus-PR or kidney-MR; also recorded: does not cross-react with progesterone receptor; also recorded: as weakly as the negative control 17β-estradiol; also recorded: no ability to interact with MR nor PR; also recorded: does not cross-react with PR
